Results taken from US20140343085A1, “USE OF ARYL DERIVATIVES FOR CONTROLLING ECTOPARASITES” (Novartis AG, priority 2011, published 2014).

Key:
[1] = Blood concentration of active enantiomer in dogs, fed vs fasted (HPLC-MSMS, enantioselective column); format: in vivo; details: 50 mg/kg
Method: To 12 dogs of mixed breed, the racemic compound 5-[5-(3,4,5-trichloro-phenyl)-5-trifluoromethyl-4,5-dihydro-isoxazol-3-yl]-3-methyl-thiophene-2-carboxylic acid [(2,2,2-trifluoro-ethylcarbamoyl)-methyl]-amide was administered in form of a solution at a dose of 50 mg/kg of animal, and the blood concentration of said aryl isoxazoline compound within the dogs was then monitored up to 6 days following the administration.
4 dogs (Group 1) received a full daily ration of pelleted dry food 15 to 30 minutes before the administration of the aryl isoxazoline compound; The Group 2 dogs received an identical ration of pelleted dry feed 30 minutes after the administration of the active ingredient. To the remaining 4 dogs of Group 3, the aryl isoxazoline compound was administered in fasted condition, and they received the identical ration of pelleted dry food only 5 hours following the uptake of the antiparasiticide.
(§1) Analysis of the blood concentration was performed as follows. A blood sample from the animal was subjected to a precipitation step with organic solvent and subsequently cleaned up on a […] solid phase extraction cartridge. The eluate was evaporated to dryness and reconstituted in mobile phase and analyzed on a HPLC-MSMS using an enantioselective column (amylose-based, brand name “Chiralpak”).

[2] = Blood concentration of active enantiomer in cats, fed vs fasted (HPLC-MSMS, enantioselective column); format: in vivo; details: 45 mg, fasted Group 2
Method: as §1
To 4 cats, each 45 mg of the racemic compound 5-[5-(3,4,5-trichloro-phenyl)-5-trifluoromethyl-4,5-dihydro-isoxazol-3-yl]-3-methyl-thiophene-2-carboxylic acid [(2,2,2-trifluoro-ethylcarbamoyl)-methyl]-amide were administered in form of an oral solution, and the blood concentration of said aryl isoxazoline compound within the cats was then monitored according to the method as described in Example 1 up to 24 days following the administration.
2 cats (Group 1) received a full daily ration of commercial wet food 15 to 30 minutes before the administration of the aryl isoxazoline compound; The two Group 2 cats received an identical ration of wet food only 5 hours following the uptake of the aryl isoxazoline.

With `Cc1cc(C2=NOC(c3cc(Cl)c(Cl)c(Cl)c3)(C(F)(F)F)C2)sc1C(=O)NCC(=O)NCC(F)(F)F` (racemic) [5-[5-(3,4,5-trichloro-phenyl)-5-trifluoromethyl-4,5-dihydro-isoxazol-3-yl]-3-methyl-thiophene-2-carboxylic acid [(2,2,2-trifluoro-ethylcarbamoyl)-methyl]-amide] the “Blood concentration of active ingredient, comparison of groups” value ([1]; Group 1 (fed 15 to 30 minutes before administration)) was “highest blood concentration of active ingredient”, the “Blood concentration of active ingredient, sufficiency for ectoparasite control” value ([1]; Group 2 (fed 30 minutes after administration)) was “allowed effective ectoparasite control as well” and the “Blood concentration of the active enantiomer, sufficiency for ectoparasite control” value ([1]; Group 3 (fasted, fed 5 hours after)) was “never reached a level being sufficient for an effective ectoparasite control”. The “Level of active ingredient, sufficiency for ectoparasite control” value [2] was “never reached a level of active ingredient sufficient to provide an effective ectoparasite control”.
